According to US20100137412A1 (priority 2008, published 2010):

Assays:
[1] = system: pseudotypes expressing H5HA and N1NA; type: cell-based, H5N1
[2] = system: H5HA and N1NA pseudotypes; type: cell-based, H5N1
[3] = system: HIV-1 envelope pseudotypes; type: cell-based
VSV-G pseudotypes = type: cell-based, vesicular stomatitis virus

SMILES: CCOC(=O)C1=C[C@@H](OC(CC)CC)[C@H](NC(C)=O)[C@@H](N)C1 [oseltamivir phosphate]
- effect on transduction efficiency [1]: marked dose-dependent decrease
- effect on transduction efficiency [2]: did not reduce
- effect on transduction efficiency [3]: did not reduce
- effect on transduction efficiency (VSV-G pseudotypes): did not reduce
